How the values were obtained:
[1] = test system: PC12 cells; assay: Cellular ATP levels (ATPLite-M) in Aβ-treated PC12 cells; type: cell-based, rat; settings: 0.1 and 1.0 μM Aβ
Description: (§1) PC12 cells (rat pheochromocytoma neurons) from ATCC (Manassas, Va.) were cultured at 37° C. and 5% CO2 in RPMI 1640 medium devoid of glutamine and supplemented with 10% fetal bovine serum and 5% horse serum. Yao Z, Drieu K and Papadopoulos V., The Gingko biloba extract EGb 761 rescues PC12 neuronal cells from β-amyloid-induced cell death by inhibiting the formation of (3-amyloid-derived diffusible neurotoxic ligands, Brain Res, 889, 181-190 (2001). Cells were seeded in 96-well plates (8×10^4 cells/well). After an overnight period of incubation, increasing concentrations of aggregated Aβ (0.1, 1 and 10 μM) were added to the cells in the presence or absence of the indicated concentrations of the SP compounds to be tested. After 72-hours incubation time various parameters, markers of cell viability, were determined. Mouse MA-10 tumor Leydig cells were maintained at 37° C. in DMEM/Ham's F12 (Biofluids, Rockville, Md.) medium supplemented with 5% heat-inactivated fetal calf serum and 2.5% horse serum in 5% CO2. Cells were plated on 96-well plates at the density of 2.5×10^4 cells/well for overnight. The cells were stimulated with the indicated concentrations of the various SP compounds in 0.2 ml/well serum-free medium for 2 hours. The culture medium was collected and tested for progesterone production by radioimmunoassay.
Cellular ATP concentrations were measured using the ATPLite-M™ luminescence assay (Packard BioSciences Co.). For this assay, cells were cultured on black 96-well ViewPlate™ and the ATP concentrations were measured on a TopCount NXT™ counter (Packard BioSciences Co.) following the recommendations of the manufacturer.

[2] = test system: differentiated NT2N neuronal cells; assay: MTT assay, viability of differentiated NT2N neuronal cells; type: cell-based, human
Text: During CNS development in vivo, cells actively participate in two opposing processes: proliferation and death (Ross, Trends Neurosci., 19, 62 (1996)). In NT2 cells, early programmed cell death (apoptosis) has been associated with the induction of differentiation by RA, it occurs mainly in undifferentiated cells, and it coincides with first detection of the neuronal phenotye (NT2N), i.e., significant apoptotic cell death could be quantified during the third and fourth days of the RA treatment using annexin V labeling as a marker of apoptosis (Guillemain et al., J. Neurosci. Res., 71, 38 (2003)). […] Thus, apoptotic cell death of undifferentiated NT2 cells also occurred during 22R-hydroxycholesterol-induced differentiation.

[3] = test system: NT2 cells; assay: Expression of GFRα receptor proteins in NT2 cells (immunoblot); type: cell-based, human; settings: 25 μM; 6 days
Description: Cells were fixed with newly prepared 3.7% formaldehyde for 15 minutes and blocked by blocking reagent (Zymed Laboratories, San Francisco, Calif., USA). Inuunostaining was performed using rabbit anti-NF200, anti-NF145 and anti-NF70 (all at 1:200), and goat anti-GFRα1, anti-GFRα2 and anti-GFRα3 (all at 1:100); Santa Cruz Biotechnology (Santa Cruz, Calif., USA). All antibodies were used at 200 μg/ml. After overnight incubation at 4° C., the immunoreactivity was detected using horseradish peroxidase-conjugated anti-rabbit or anti-mouse IgG for 1 hour at room temperature and visualized using AEC.
Cells were then washed with phosphate-buffered saline (PBS) and lysed with loading buffer. Proteins were resolved by sodium dodecyl sulfate polyacrylamide gel electrophoresis (SDS-PAGE) on 4-20% gradient acrylamide-bis-acrylamide gel at 125 V for 2 hours and electrotransferred onto nitrocellulose membranes. After blocking with 5% nonfat milk, the membranes were subjected to immunoblot analysis by incubation overnight with rabbit anti-NF200, anti-NF145 and anti-NF70 (all at 1:4000) (Chemicon International, Temecula, Calif., USA) and goat anti-GFRα1, anti-GFRα2 and anti-GFRα3 (all at 1:500) (200 μg/ml; Santa Cruz Biotechnology, Inc., Santa Cruz, Calif., USA), goat anti-rabbit or rabbit anti-goat IgG-horseradish peroxidase being used as the secondary antibody (1:5000) (Zymed Laboratories, San Francisco, Calif., USA). Protein bands were visualized using ECL reagents (Amersham Pharmacia Biotech, Piscataway, N.J., USA). Image-densitometric analyses of the immunoreactive protein bands were performed using OptiQuant-image analysis software (Packard BioScience, Meriden, Conn., USA). Glyceraldehyde-3-phosphate dehydrogenase (GAPPH) served as an internal standard.

[4] = test system: PC12 cells (rat pheochromocytoma neurons); assay: MTT cytotoxicity assay, Aβ-induced neurotoxicity in PC12 cells (Example II); type: cell-based; settings: MTT; compounds at 30 and 50 μM; 72 hours
Description: as §1
The cellular toxicity of Aβ was assessed using the 3-(4,5-dimethylthiazol-2-yl)-2,5-diphenyl tetrazolium bromide (MTT) assay (Trevigen, Gaithersburg, Md.). Briefly, 10 μl of the MTT solution were added to the cells cultured in 100 μl medium. After an incubation period of 4 hours, 100 μl of detergent were added and cells were incubated overnight at 37° C. Formazan blue formation was quantified at 600 nm and 690 nm using the Victor quantitative detection spectrophotometer (EGG-Wallac, Gaithersburg, Md.) and the results expressed as (DO600-DO690). […] Liu Y and Schubert D, Steroid hormones block amyloid fibril-induced 3-(4,5-dimethylthiazol-2-yl)-2,5-diphenyltetrazolium bromide (MTT) formazan exocytosis: relationship to neurotoxicity, J. Neurochem., 19, 1639-1662 (1998). For that reason, additional cytotoxicity and cell viability assays were used.
Yao et al., J. Neurochem., 83, 1110-1119 (2002); and Yao et al., The Gingko biloba extract EGb 761 rescues PC12 neuronal cells from β-amyloid-induced cell death by inhibiting the formation of β-amyloid-derived diffusible neurotoxic ligands, Brain Res., 889, 181-190 (2001). To stay close to the concentrations of Aβ present in AD brain, 0.1-10 μM concentrations of Aβ were used. The compounds tested for their neuroprotective properties were examined at 30 and 50 μM concentrations (FIGS. 9-15).

`CC(C)CC[C@@H](O)[C@@H](C)[C@H]1CC[C@H]2[C@@H]3CC=C4C[C@@H](O)CC[C@]4(C)[C@H]3CC[C@]12C` [SP222, 22R-hydroxycholesterol] was tested, and the “reversal of Aβ-induced decrease in ATP levels” value [1] was “did not block”, the “effect on viability of differentiated NT2N neuronal cells” value [2] was “had no effect” and the “decrease of GFRα3 protein expression” value [3] was “about 16%”. For the same compound, the “expression of GFRα1” value [3] was “no significant effect”, the “increase of GFRα2 protein expression over the control level” value [3] was 45% and the “neuroprotection against 0.1 μM Aβ-induced neurotoxicity” value [4] was “protects”. The “neuroprotection against 1 μM Aβ-induced neurotoxicity” value [4] was “protects” and the “neuroprotection against 10 μM Aβ-induced neurotoxicity” value [4] was “limited neuroprotection”.
